Activity calls are given as the source filed them. No cut-off for these calls is given here.
Key:
Type in all cases: functional, cell-based
C6 [1] = assay: Antiproliferative activity against Rattus norvegicus (rat) C6 cells at 5 to 75 ug/ml after 24 hr by BRdU incorporation assay
HeLa [2] = assay: Antiproliferative activity against Homo sapiens (human) HeLa cells at 5 to 40 ug/ml after 24 hr by BRdU incorporation assay
HeLa [3] = assay: Antiproliferative activity against Homo sapiens (human) HeLa cells at 5 to 100 ug/ml after 24 hr by BRdU incorporation assay
C6 [4] = assay: Antiproliferative activity against Rattus norvegicus (rat) C6 cells at 5 to 100 ug/ml after 24 hr by BRdU incorporation assay

With `C/C=C\C#CC/C=C\CCCCCC(C)=O` the Activity (C6 [1]) was “Active” and the Activity (HeLa [2]) was “Active”.
With `C=CCCCCC/C=C/CCCCCC` the Activity (HeLa [3]) was “inactive” and the Activity (C6 [4]) was “inactive”.
